The source of these data is PubChem BioAssay (NCI).

Assay in all cases: NCI tumour cell line growth inhibition, 48 h
For experiment [1], the system named is IGROV1 ovarian.
The subject of experiment [2] is M14 melanoma.
Experiment [3] deals with MOLT-4 leukemia.
Experiment [4] relates to NCI/ADR-RES ovarian.
The subject of experiment [5] is OVCAR-4 ovarian.
Experiment [6] concerns OVCAR-5 ovarian.
In experiment [7] the test system is PC-3 prostate.
In experiment [8] the test system is SF-295 CNS.
Experiment [9] deals with SR leukemia.
The test system of experiment [10] is TK-10 renal.

Values joined by “and” are separate entries in the source; they are usually repeats but may differ in a detail not shown here. Equal entries are not always repeated.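 How tested: cells in 96-well plates exposed to compound for 48 hours at five concentrations. GI50: concentration for 50% inhibition of growth. The concentration for full growth arrest is given as TGI.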 Bounds are passed on as bounds.

Regarding `CC(=O)N(O)c1ccc(/C=C/c2ccccc2)cc1`, the GI50 was 1.14 µM in experiment [1]; 3.35 µM in [2]; 2.27 µM in experiment [3]; 2.21 µM in experiment [4]; 2.91 µM in experiment [5]; 2.35 µM in experiment [6]. Besides, the GI50 in experiment [7] was 2.32 µM; in experiment [8] it was 0.362 µM; in [9], 0.244 µM; in experiment [10], 1.9 µM. The TGI in experiment [1] is 7.41 µM; in [2], > 100 µM; in experiment [3], > 100 µM; in experiment [4], 44.1 µM; in [5], > 82.1 µM; in [6] it was 9.46 µM. For the same compound, the TGI in experiment [7] is > 100 µM; in experiment [8], 2.78 µM; in experiment [9] it was > 100 µM; in [10], 5.86 µM.
Turning to `CC(C)(C)c1cc(C(=O)O)c2c(c1)C(=O)OC2(c1ccccc1)c1ccccc1C(=O)O` (centres undefined), the GI50 in experiment [1], in experiment [4] and in experiment [7] was > 100 µM throughout. The TGI in experiment [1], in experiment [2], in experiment [3], in experiment [4], in experiment [5] and in [6] was > 100 µM throughout. The TGI in experiment [7], in experiment [8], in experiment [9] and in experiment [10] was > 100 µM in each case.
Turning to `COc1c(CC=C(C)C)c(O)c(C(CC(C)C)c2c(O)c(CC=C(C)C)c(O)c(C(C)=O)c2O)c(O)c1C(C)=O` (centres undefined), the TGI in experiment [1] is 13.4 µM; in experiment [2], 5.72 µM; in [3], 2.48 µM; in experiment [4], 10.2 µM; in experiment [5] it was 14.4 µM; in experiment [6], 19.7 µM. For the same compound, the TGI in experiment [7] was found to be 10.3 µM; in experiment [8], 2.28 µM; in experiment [9], 3.8 µM; in experiment [10], 14.6 µM.
Take `CCn1ccnc1C(=O)/C=C/c1ccc(CC(=O)Nc2ccc(F)cc2)cc1`: the GI50 in [1] is 4.63 µM; in experiment [2], 3.02 µM; in experiment [3], 5.28 µM; in experiment [4] it was 5.37 µM; in experiment [5], 3.31 µM; in [6], 4.97 µM. Also, the GI50 was 7.06 µM in experiment [7], 4.41 µM in experiment [8], 0.529 µM in experiment [9] and 6.01 µM in experiment [10]. Moreover, the TGI in [1] is > 16.7 µM; in experiment [2], 8.06 µM; in [3], 14.5 µM; in experiment [4] it was > 16.7 µM; in experiment [5], > 16.7 µM; in experiment [6] it was > 16.7 µM. Also, the TGI is > 16.7 µM in [7], > 16.7 µM in experiment [8], 11.1 µM in [9] and > 16.7 µM in experiment [10].
As for `O=c1[nH]c2ccccc2n1C1CCN(CCCC(c2ccc(F)cc2)c2ccc(F)cc2)CC1`, the GI50 in experiment [1] is 1.96 µM; in experiment [2], 1.83 µM; in experiment [3] it was 2.23 µM; in experiment [4], 1.46 µM and 3.2 µM; in experiment [5] it was 1.23 µM; in experiment [6], 1.74 µM. Besides, the GI50 is 1.41 µM and 7.81 µM in experiment [7]; 1.5 µM in experiment [8]; 1.54 µM and 6.93 µM in experiment [10]. For the same compound, the TGI in experiment [1] is 3.86 µM and 32.4 µM; in [2], 3.72 µM and 8.19 µM; in experiment [3] it was 5.75 µM and 16.6 µM; in experiment [4], 2.96 µM and 13.2 µM; in experiment [5] it was 2.47 µM and 22 µM; in experiment [6], 3.51 µM and 22.8 µM. Further, the TGI in [7] was 3.2 µM and 21.3 µM; in experiment [8], 3.02 µM and 14.5 µM; in [9], 5.22 µM; in experiment [10] it was 2.95 µM and 16.1 µM.
As to `C/C(=N\NC(=S)N1CCN(c2ccccn2)CC1)c1ncccn1`, the GI50 is < 0.0121 µM in experiment [1]; 0.0938 µM in experiment [2]; 2.44 µM in experiment [5]; 0.0298 µM in experiment [7]; 0.0934 µM in experiment [8]; 0.0622 µM in experiment [9]. In addition, the GI50 in experiment [10] is 1.71 µM. Also, the TGI is 4.31 µM and 16.3 µM in [1]; 6.06 µM and 2.61 µM in experiment [2]; 7.02 µM and > 38.4 µM in [3]; 3.95 µM and 0.403 µM in experiment [4]; 4.26 µM and 21.2 µM in experiment [5]; 4.77 µM and 21.5 µM in experiment [6]. Also, the TGI in [7] was 15.9 µM; in experiment [8], 5.83 µM and 6.76 µM; in experiment [9], 12.3 µM; in experiment [10], 18.5 µM.
Regarding `[Cl][Cu][Cl]`, the GI50 in experiment [1], in experiment [2], in experiment [3], in experiment [4], in [5] and in experiment [6] was > 10 µM in each case. Besides, the GI50 in experiment [7] is > 10 µM; in experiment [8], 3.6 µM; in experiment [9] it was > 10 µM; in [10], > 10 µM. The TGI in experiment [1], in experiment [2], in experiment [3], in experiment [4], in experiment [5] and in experiment [6] was > 10 µM in each case. In addition, the TGI in experiment [7], in experiment [8], in experiment [9] and in experiment [10] was > 10 µM in each case.
Consider `COc1ccc(S(=O)(=O)N2CCNCC2)cc1OC`, for which the GI50 in experiment [1], in [2], in [3], in experiment [4], in experiment [5] and in experiment [6] was > 100 µM each time. For the same compound, the GI50 in [7], in [8], in experiment [9] and in [10] was > 100 µM in each case. In addition, the TGI in experiment [1], in [2], in experiment [3], in experiment [4], in experiment [5] and in experiment [6] was > 100 µM each time. Further, the TGI in experiment [7], in experiment [8], in experiment [9] and in [10] was > 100 µM each time.
